In US20210308207A1, “COMPOUNDS COMPRISING A LINKER FOR INCREASING TRANSCYCLOOCTENE STABILITY” (Tagworks Pharmaceuticals B.V., priority 2018, published 2021):
Where a SMILES comes first, the peptide text is derived from it. [ ]: non-standard residue; d: D form. The star is where a group is joined. Dolaproine = CO[C@@H]([C@@H]1CCCN1)[C@@H](C)C(=O)O; Dil = CC[C@H](C)[C@H](NC)[C@@H](CC(=O)O)OC; X1 = C[C@@H](N*)[C@@H](O)c1ccccc1; NMeV = CN[C@H](C(=O)O)C(C)C

Assays:
AVP0458-TCO-MMAE = test: Tetrazine-induced MMAE release from diabody ADC (LC-SIM-MS, D8-MMAE standard); settings: 37° C., 24 h, PBS/plasma (1/1), 10 equiv of tetrazine
Experimental: MMAE release from diabody ADC (AVP0458-TCO-MMAE) was determined by using a deuterated internal standard D8-MMAE. ADC (1.1×10^−10 moles bound MMAE) and D8-MMAE (1.1×10^−10 moles) and 10 equiv of tetrazine were incubated in 100 uL PBS/plasma (1/1) at 37° C. […] After vortexing, 10 min standing at −20° C. and centrifugation, the supernatants were separated from the protein pellets, diluted with five parts of PBS and the ratio MMAE/D8-MMAE was measured with LC-SIM-MS, affording the release yields (Table 3).

NIH:OVCAR-3 cells = test: Cell proliferation (MTT) assay, NIH:OVCAR-3; format: cell-based, human; settings: NIH:OVCAR-3, 72 h
Experimental: (§1) The human colon cancer LS174T cell line was cultured in RPMI-1640 medium supplemented with 2 mM glutamine and 10% heat inactivated fetal calf serum. The human ovary carcinoma NIH:OVCAR-3 cell line was cultured in RPMI-1640 medium supplemented with 1 mM sodium pyruvate, 10 mM HEPES, 2 mM glutamine, 10 pg/mL bovine insulin and 20% fetal calf serum. The LS174T and NIH:OVCAR-3 cells were plated in 96-well plates at a 5000 cells/well density 24 h prior to the experiment. […] After 72 h incubation at 37° C., cell proliferation was assessed by an MTT assay. The proliferation assay was performed in triplicate.

LS174T cells = test: Cell proliferation (MTT) assay, LS174T; format: cell-based, human; settings: 72 h
Experimental: as §1

## Cc1nnc(C)nn1 [Compound 2.1, 3,6-dimethyl-1,2,4,5-tetrazine]
AVP0458-TCO-MMAE
  release (%), induced MMAE release from AVP0458-TCO-MMAE: 95 ± 0.4%

## Cc1nnc(-c2ccc(NC(=O)CCCC(=O)NCCOCCOCCOCCOCCOCCOCCOCCOCCOCCOCCOCCNC(=O)CN3CCN(CC(=O)O)CCN(CC(=O)O)CCN(CC(=O)O)CC3)cn2)nn1 [Compound 3.4, 2,2′,2″-(10-(44-((6-(6-methyl-1,2,4,5-tetrazin-3-yl)pyridin-3-yl)amino)-2,40,44-trioxo-6,9,12,15,18,21,24,27,30,33,36-undecaoxa-3,39-diazatetratetracontyl)-1,4,7,10-tetraazacyclododecane-1,4,7-triyl)triacetic acid]
AVP0458-TCO-MMAE
  release (%), induced MMAE release from AVP0458-TCO-MMAE: 47 ± 0.3%

## Cc1nnc(-c2ncccn2)nn1 [Compound 4.1, 3-methyl-6-(pyrimidin-2-yl)-1,2,4,5-tetrazine]
AVP0458-TCO-MMAE
  release (%), induced MMAE release from AVP0458-TCO-MMAE: 69 ± 0.0%

## CN(CCc1nnc(-c2ncccn2)nn1)C(=O)CCCC(=O)NC(CO)(CO)CO [Compound 4.15]
AVP0458-TCO-MMAE
  release (%), induced MMAE release from AVP0458-TCO-MMAE: 55 ± 0.4%

## Cc1nnc(-c2nccc(CNC(=O)OC(C)(C)C)n2)nn1 [Compound 4.17]
AVP0458-TCO-MMAE
  release (%), induced MMAE release from AVP0458-TCO-MMAE: 70 ± 0.1%

## Cc1nnc(-c2cnccn2)nn1 [Compound 4.18]
AVP0458-TCO-MMAE
  release (%), induced MMAE release from AVP0458-TCO-MMAE: 55 ± 0.8%

## Cc1nnc(-c2ccncn2)nn1 [Compound 4.19]
AVP0458-TCO-MMAE
  release (%), induced MMAE release from AVP0458-TCO-MMAE: 60 ± 0.1%

## Cc1nnc(-c2nccnc2C)nn1 [Compound 4.20]
AVP0458-TCO-MMAE
  release (%), induced MMAE release from AVP0458-TCO-MMAE: 59 ± 0.3%

## Cc1nnc(-c2nccc(C(=O)O)n2)nn1 [Compound 4.23]
AVP0458-TCO-MMAE
  release (%), induced MMAE release from AVP0458-TCO-MMAE: 69 ± 0.5%

## Cc1nnc(-c2nccc(CNC(=O)CN(CCN(CC(=O)O)CC(=O)O)CC(=O)O)n2)nn1 [Compound 4.26]
AVP0458-TCO-MMAE
  release (%), induced MMAE release from AVP0458-TCO-MMAE: 59 ± 0.6%

## Cc1nnc(-c2nccc(CNC(=O)CCCC(=O)O)n2)nn1 [Compound 4.27]
AVP0458-TCO-MMAE
  release (%), induced MMAE release from AVP0458-TCO-MMAE: 66 ± 0.5%

## CC[C@H](C)[C@@H]([C@@H](CC(=O)N1CCC[C@H]1[C@H](OC)[C@@H](C)C(=O)N[C@H](C)[C@@H](O)c1ccccc1)OC)N(C)C(=O)[C@@H](NC(=O)[C@@H](NC)C(C)C)C(C)C [MMAE, Monomethyl auristatin E] (H-[NMeV]V[Dil][Dolaproine]-X1)
NIH:OVCAR-3 cells
  EC50: 0.039 nM
LS174T cells
  EC50: 0.277 nM
